In ChEMBL document CHEMBL1201862, “PubChem BioAssay data set” (2004):
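Each compound was tested at five concentrations against cells in 96-well plates for 48 hours. Abbreviation: GI50, concentration required for 50% inhibition of growth.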 Activity calls are given as the source filed them. Rule as the data show it: active = GI50 up to about 1.1 µM and inactive = higher.

Columns and labels:
Experiment in all cases: NCI anticancer screen, dose series, 48 h
[1] = test system: K562
[2] = test system: Malme-3M
[3] = test system: UACC-257
[4] = test system: ACHN
[5] = test system: A549
[6] = test system: RXF 393
[7] = test system: OVCAR-3
[8] = test system: SN12C
[9] = test system: PC-3
[10] = test system: SF-268
[11] = test system: MOLT-4
[12] = test system: SNB-19
[13] = test system: U-251
[14] = test system: 786-0
[15] = test system: DU-145
[16] = test system: MDA-N
[17] = test system: CCRF-CEM
[18] = test system: BT-549
[19] = test system: RPMI-8226
[20] = test system: DLD-1

Row | Structure (SMILES) | GI50 [1] | GI50 [2] | GI50 [3] | GI50 [4] | GI50 [5] | GI50 [6] | GI50 [7] | GI50 [8] | GI50 [9] | GI50 [10] | GI50 [11] | GI50 [12] | GI50 [13] | GI50 [14] | GI50 [15] | GI50 [16] | GI50 [17] | GI50 [18] | GI50 [19] | GI50 [20]
1 | Nc1nc(N)c(N=Nc2ccc([As](=O)(O)O)c(O)c2)c(N)n1 | 11.1 µM (inactive) | 79.1 µM (inactive) | 91.6 µM (inactive) | 49 µM (inactive) | > 82.4 µM (inactive) | 7.48 µM (inactive) | 3.61 µM (inactive) | 12.1 µM (inactive) | 22.7 µM (inactive) | 55.8 µM (inactive) | 3.63 µM (inactive) | 43.2 µM (inactive) | 22.9 µM (inactive) | 20 µM (inactive) | 7.5 µM (inactive) | 0.839 µM (active) | 1.9 µM (inactive) | 32.4 µM (inactive) | 3.21 µM (inactive) | 
2 | O=C(NCc1ccccc1)c1c(O)nc2ccccc2c1O | > 100 µM (inactive) | > 100 µM (inactive) | > 100 µM (inactive) | > 100 µM (inactive) | > 100 µM (inactive) | > 100 µM (inactive) | > 100 µM (inactive) | > 100 µM (inactive) | > 100 µM (inactive) | > 100 µM (inactive) | > 100 µM (inactive) | > 100 µM (inactive) | > 100 µM (inactive) | > 100 µM (inactive) | > 100 µM (inactive) | > 100 µM (inactive) | > 100 µM (inactive) | > 100 µM (inactive) | > 100 µM (inactive) | 
3 | O=c1[nH]ccc2c1ccn2C1CC(O)C(CO)O1 (configuration not stated) | > 100 µM (inactive) | > 100 µM (inactive) | > 100 µM (inactive) | > 100 µM (inactive) | > 100 µM (inactive) |  | > 100 µM (inactive) | > 100 µM (inactive) |  |  | > 100 µM (inactive) | > 100 µM (inactive) | > 100 µM (inactive) | > 100 µM (inactive) |  |  | > 100 µM (inactive) |  | > 100 µM (inactive) | > 100 µM (inactive)
4 | Cn1nc2ccccc2cc1=O | > 100 µM (inactive) | > 100 µM (inactive) | > 100 µM (inactive) | > 100 µM (inactive) | > 100 µM (inactive) |  | > 100 µM (inactive) | > 100 µM (inactive) |  | > 100 µM (inactive) |  | > 100 µM (inactive) | > 100 µM (inactive) | > 100 µM (inactive) |  |  | > 100 µM (inactive) |  | > 100 µM (inactive) | > 100 µM (inactive)
5 | Cn1c(=O)c(C(=O)Nc2nc(C34CC5CC(CC(C5)C3)C4)cs2)c(O)c2ccccc21 | 40 µM (inactive) | > 100 µM (inactive) | > 100 µM (inactive) | 24.3 µM (inactive) | 79.8 µM (inactive) | 22.2 µM (inactive) | > 100 µM (inactive) | > 100 µM (inactive) | > 100 µM (inactive) | > 100 µM (inactive) | > 10 µM (inactive) | 35.6 µM (inactive) | 57.5 µM (inactive) | 36.7 µM (inactive) | > 100 µM (inactive) | > 100 µM (inactive) | 41.2 µM (inactive) | 75.2 µM (inactive) | > 100 µM (inactive) | 
6 | CC(=O)SC(C[N+](=O)[O-])c1ccc2c(c1)OCO2 (configuration not stated) | 3.38 µM (inactive) | 8.11 µM (inactive) | 9.1 µM (inactive) | 8.81 µM (inactive) | 14.2 µM (inactive) | 1.9 µM (inactive) | 8.24 µM (inactive) | 5.73 µM (inactive) | 12.7 µM (inactive) | 15.9 µM (inactive) | 2.98 µM (inactive) | 9.31 µM (inactive) | 5.37 µM (inactive) | 3.64 µM (inactive) | 11 µM (inactive) | 2.1 µM (inactive) | 4.8 µM (inactive) | 6.17 µM (inactive) | 1.39 µM (inactive) | 
7 | CC1(C)OC[C@@]2([C@@H]3CC[C@@H](C3)C2(C)C)N1O | > 100 µM (inactive) | 28.8 µM (inactive) | > 100 µM (inactive) | > 100 µM (inactive) | > 100 µM (inactive) | > 100 µM (inactive) | > 100 µM (inactive) | > 100 µM (inactive) | 55.8 µM (inactive) | > 100 µM (inactive) | > 100 µM (inactive) | > 100 µM (inactive) | 88.9 µM (inactive) | > 100 µM (inactive) | > 100 µM (inactive) | > 100 µM (inactive) | > 100 µM (inactive) | > 100 µM (inactive) | 79.4 µM (inactive) | 
8 | CC(NC1=CC(=O)c2ncccc2C1=O)C(O)c1ccccc1 (configuration not stated) | 2.04 µM (inactive) | 1.89 µM (inactive) | 1.91 µM (inactive) | 7 µM (inactive) | 3.03 µM (inactive) | 7.76 µM (inactive) | 2.45 µM (inactive) | 5.18 µM (inactive) | 12.1 µM (inactive) | 12.2 µM (inactive) | 8.63 µM (inactive) | 6.35 µM (inactive) | 2.61 µM (inactive) | 8.69 µM (inactive) | 6.22 µM (inactive) | 1.58 µM (inactive) | 5.75 µM (inactive) | 1.85 µM (inactive) | 13.4 µM (inactive) | 
